Measurements: publication PMC8643097 (British journal of pharmacology, 2021)

Key:
Nav1.7 = Nav1.7 (Homo sapiens, UniProt Q15858); type: cell-based
Nav1.8 = Nav1.8 (Homo sapiens, UniProt Q9Y5Y9); type: cell-based; conditions: CHO-K1, read-out: % inhibition at 300 μM
Nav1.8, sequence (Q9Y5Y9 whole entry): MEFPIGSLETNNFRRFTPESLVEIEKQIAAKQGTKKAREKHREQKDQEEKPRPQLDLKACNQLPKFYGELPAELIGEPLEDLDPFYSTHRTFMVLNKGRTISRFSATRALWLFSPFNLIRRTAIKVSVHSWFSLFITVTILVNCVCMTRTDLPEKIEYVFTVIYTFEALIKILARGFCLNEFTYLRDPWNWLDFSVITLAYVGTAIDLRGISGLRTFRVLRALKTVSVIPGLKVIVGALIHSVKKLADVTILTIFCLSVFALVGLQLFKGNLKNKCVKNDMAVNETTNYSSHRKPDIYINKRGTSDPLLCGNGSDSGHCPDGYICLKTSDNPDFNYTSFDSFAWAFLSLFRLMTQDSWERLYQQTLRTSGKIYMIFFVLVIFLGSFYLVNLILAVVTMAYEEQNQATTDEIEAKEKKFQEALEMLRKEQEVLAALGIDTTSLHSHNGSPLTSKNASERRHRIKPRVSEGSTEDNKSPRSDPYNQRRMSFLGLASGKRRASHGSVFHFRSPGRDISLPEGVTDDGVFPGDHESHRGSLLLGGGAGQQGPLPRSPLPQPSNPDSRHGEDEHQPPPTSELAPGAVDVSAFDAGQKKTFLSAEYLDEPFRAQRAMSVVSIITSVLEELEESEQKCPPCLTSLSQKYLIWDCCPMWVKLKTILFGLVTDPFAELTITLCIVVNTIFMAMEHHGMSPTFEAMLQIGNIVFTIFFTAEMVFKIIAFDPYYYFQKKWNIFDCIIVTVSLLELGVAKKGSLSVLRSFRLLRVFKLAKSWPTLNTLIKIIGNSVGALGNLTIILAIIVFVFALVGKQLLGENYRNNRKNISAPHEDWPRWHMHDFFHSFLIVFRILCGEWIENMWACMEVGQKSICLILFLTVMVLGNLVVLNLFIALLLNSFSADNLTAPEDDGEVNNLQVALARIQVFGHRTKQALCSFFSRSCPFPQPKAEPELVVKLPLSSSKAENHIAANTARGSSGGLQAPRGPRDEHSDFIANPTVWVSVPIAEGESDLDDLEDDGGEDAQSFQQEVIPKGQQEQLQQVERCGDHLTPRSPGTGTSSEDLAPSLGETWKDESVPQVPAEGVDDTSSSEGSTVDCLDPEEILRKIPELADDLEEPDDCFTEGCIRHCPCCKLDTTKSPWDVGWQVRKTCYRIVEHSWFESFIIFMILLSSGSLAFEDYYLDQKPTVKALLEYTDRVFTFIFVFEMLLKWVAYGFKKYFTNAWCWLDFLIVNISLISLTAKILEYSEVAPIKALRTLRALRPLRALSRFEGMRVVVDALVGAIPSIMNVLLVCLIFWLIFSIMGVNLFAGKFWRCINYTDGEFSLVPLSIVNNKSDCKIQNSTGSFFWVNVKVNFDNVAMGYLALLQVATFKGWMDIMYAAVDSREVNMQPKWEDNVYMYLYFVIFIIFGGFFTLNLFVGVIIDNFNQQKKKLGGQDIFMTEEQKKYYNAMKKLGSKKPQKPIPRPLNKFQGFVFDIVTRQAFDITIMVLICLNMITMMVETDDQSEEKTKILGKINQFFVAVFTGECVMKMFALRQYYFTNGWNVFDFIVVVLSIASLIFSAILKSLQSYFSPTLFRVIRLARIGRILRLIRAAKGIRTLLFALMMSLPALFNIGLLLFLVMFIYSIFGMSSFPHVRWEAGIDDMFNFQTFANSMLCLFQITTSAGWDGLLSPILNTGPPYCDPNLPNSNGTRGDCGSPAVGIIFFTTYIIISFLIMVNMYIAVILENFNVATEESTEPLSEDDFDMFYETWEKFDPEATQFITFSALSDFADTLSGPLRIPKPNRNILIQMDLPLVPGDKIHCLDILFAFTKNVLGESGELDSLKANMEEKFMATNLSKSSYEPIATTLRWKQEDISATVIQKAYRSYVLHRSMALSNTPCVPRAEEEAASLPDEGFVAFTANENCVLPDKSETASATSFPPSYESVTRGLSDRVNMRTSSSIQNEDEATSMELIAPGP
Nav1.8, sequence (Q9NY72 23-215 partner): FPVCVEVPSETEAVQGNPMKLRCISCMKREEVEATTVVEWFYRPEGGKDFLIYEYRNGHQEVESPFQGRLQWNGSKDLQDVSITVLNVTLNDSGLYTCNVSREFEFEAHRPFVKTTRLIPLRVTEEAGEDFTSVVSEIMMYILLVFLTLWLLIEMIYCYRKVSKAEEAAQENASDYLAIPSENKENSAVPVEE

Nav1.7, sequence (Q15858 whole entry): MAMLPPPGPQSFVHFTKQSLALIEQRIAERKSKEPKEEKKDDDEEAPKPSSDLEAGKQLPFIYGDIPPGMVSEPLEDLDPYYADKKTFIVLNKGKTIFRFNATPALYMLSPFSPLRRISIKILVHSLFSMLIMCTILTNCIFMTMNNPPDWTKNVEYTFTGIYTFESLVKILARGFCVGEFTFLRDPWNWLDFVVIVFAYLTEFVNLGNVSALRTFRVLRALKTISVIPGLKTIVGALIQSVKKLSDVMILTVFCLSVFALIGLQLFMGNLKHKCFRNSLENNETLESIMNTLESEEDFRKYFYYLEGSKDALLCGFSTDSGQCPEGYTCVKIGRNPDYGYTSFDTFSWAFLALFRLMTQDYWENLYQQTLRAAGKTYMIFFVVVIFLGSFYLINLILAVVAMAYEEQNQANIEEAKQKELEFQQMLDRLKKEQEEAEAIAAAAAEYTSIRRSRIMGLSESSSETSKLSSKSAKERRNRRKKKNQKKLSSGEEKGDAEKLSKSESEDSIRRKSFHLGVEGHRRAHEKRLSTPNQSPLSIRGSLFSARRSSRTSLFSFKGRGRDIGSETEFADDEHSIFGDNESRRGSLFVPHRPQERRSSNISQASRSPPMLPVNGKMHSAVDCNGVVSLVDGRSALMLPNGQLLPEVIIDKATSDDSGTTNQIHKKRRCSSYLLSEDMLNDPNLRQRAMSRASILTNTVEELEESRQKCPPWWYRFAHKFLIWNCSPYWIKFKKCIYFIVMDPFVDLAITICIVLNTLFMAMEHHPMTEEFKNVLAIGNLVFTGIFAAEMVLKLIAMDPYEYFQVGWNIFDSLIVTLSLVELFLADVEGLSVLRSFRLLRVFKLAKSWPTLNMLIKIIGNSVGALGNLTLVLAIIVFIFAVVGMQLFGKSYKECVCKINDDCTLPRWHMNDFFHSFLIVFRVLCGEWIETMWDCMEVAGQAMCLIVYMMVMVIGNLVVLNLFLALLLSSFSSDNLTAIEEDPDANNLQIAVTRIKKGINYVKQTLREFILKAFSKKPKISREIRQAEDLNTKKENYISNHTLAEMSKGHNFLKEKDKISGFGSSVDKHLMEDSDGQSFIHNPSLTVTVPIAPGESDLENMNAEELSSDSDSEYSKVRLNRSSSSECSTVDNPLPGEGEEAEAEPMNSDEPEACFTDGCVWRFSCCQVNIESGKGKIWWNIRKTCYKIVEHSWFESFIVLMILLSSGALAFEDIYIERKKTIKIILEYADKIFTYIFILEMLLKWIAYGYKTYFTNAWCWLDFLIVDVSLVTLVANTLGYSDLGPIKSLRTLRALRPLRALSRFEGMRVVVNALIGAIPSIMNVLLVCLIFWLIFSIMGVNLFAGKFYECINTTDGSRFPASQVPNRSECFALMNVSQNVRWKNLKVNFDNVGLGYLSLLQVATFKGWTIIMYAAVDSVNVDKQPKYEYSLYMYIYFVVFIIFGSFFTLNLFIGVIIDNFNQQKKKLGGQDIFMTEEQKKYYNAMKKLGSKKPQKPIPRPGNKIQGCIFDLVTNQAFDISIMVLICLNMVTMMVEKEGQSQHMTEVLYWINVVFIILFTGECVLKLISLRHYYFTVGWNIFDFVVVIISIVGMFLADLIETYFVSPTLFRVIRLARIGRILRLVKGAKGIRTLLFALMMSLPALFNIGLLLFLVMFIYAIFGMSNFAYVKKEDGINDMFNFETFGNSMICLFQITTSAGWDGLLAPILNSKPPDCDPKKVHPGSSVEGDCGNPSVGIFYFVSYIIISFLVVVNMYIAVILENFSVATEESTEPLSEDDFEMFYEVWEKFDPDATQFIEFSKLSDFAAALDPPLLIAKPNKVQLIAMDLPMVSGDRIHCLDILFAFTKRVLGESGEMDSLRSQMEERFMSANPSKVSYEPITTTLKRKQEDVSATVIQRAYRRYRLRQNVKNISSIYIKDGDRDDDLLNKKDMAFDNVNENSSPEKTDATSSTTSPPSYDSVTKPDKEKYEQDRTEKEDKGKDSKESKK

SMILES: CCC(C(=O)Nc1c(C)cccc1C)[N+]1(CC)CCCCC1 (stereo not drawn) [BW-031, 1-(1-(2,6-dimethylphenylamino)-1-oxobutan-2-yl)-1-ethylpiperidinium]
- IC50 (Nav1.7): 9.5 µM
- inhibition at 300 µM (Nav1.8): 30 ± 18%

SMILES: CC[N+](CC)(CC)CC(=O)Nc1c(C)cccc1C [QX-314]
- IC50 (Nav1.7): 66 µM
